Results on eight compounds are retold here after patent US20150011751A1, “NOVEL TRIAZINE DERIVATIVE” (CARNA BIOSCIENCES, INC., priority 2012, published 2015).

Assay [1] addresses BTK (Homo sapiens, UniProt Q06187). The experiment in a line: Test of activity inhibition against BTK (mobility shift assay, QuickScout Screening Assist MSA).
Experimental: Kinase activity was measured by a mobility shift assay (MSA) method using QuickScout Screening Assist (trademark) MSA (commercially available kit, manufactured by Carna Biosciences, Inc.). FITC-labeled SRCtide peptide supplied with the kit was used as a substrate of a kinase reaction.
The heights of the respective peaks of the isolated substrate and phosphorylated substrate were designated S and P. Those containing the assay buffer added therein in place of the enzyme solution were measured as a blank.
Inhibition ratio (%) of a test compound was calculated according to the following equation:
where A, B, and C represent P/(P+S) of a blank well, P/(P+S) of a control solution well, and P/(P+S) of a well containing the compound added therein, respectively.
IC50 value was calculated by regression analysis of the inhibition ratio and the test compound concentration (logarithm).
For assay [2], the target named is Dephosphorylated BTK (Homo sapiens, UniProt Q06187). In words: Test of activity inhibition against dephosphorylated BTK (mobility shift assay).
Assay [3] relates to intracellular BTK (pY223) in Ramos cells. As to conditions: test compound 0.3 μM, 1 hour, IgM 10 μg/mL 10 minutes.
Experimental: (§1) The supernatant was recovered by a centrifugal operation (at 15,000 rpm for 15 minutes) and the amount of protein was quantitatively determined. The supernatant was mixed with SDS-sample buffer and the mixture was reacted at 95° C. for 5 minutes thereby modifying the protein to obtain a sample solution. […] Thereafter, the protein in the gel was transferred to a PVDF membrane, using an iBlot gel transfer system (Life Technologies Corporation).
(§2) The unreacted secondary antibody was washed with TBST buffer and reacted according to the attached protocol, using ECL Prime Western Blotting Detection System (GE Healthcare Ltd.), and then each band was detected by chemiluminescence using a CCD camera (ATTO, Light-CaptureII). The detected band was digitized by densitometry (ATTO CS Analyzer ver.3.0) and an inhibition ratio was calculated from the intensity of a band in each group on the assumption that luminescence of a band of phosphorylated BTK of the compound no-addition and IgM stimulated group is 100%, whereas, luminescence of a band of phosphorylated BTK of the compound no-addition and IgM non-stimulated group is 0%. Each band of phosphorylated BTK was corrected by the total BTK.
(§3) Thereafter, IgM (Invitrogen, H15100) diluted with the medium was added so that the final concentration becomes 10 μg/mL, followed by incubation at 37° C. for 10 minutes.
(§4) The intracellular BTK autophosphorylation inhibiting activity was indicated with the mark “***” when 70% or more, with the mark “**” when 50% or more and less than 70%, and with the mark “*” when 30% or more and less than 50%.
Assay [4] shares this test system. The experiment in a line: Inhibition of self-phosphorylation activity of intracellular BTK in IgM-stimulated Ramos cells (Western blot, Test Example 3-1). The class given is cell-based. Conditions: test compound 1 μM, 1 hour, IgM 10 μg/mL 10 minutes. The text has this:
Combinations of primary antibody and secondary antibody as well as dilute concentrations used in the present test are as follows.
On the technique in general: In western blotting, separated proteins are transferred to a membrane and probed.

The test system is the same in assay [5]. In words: cells. Conditions: Homo sapiens, read-out: BTK phosphorylation inhibitory activity.
Experimental: as §1, §2, §3, §4

Sequence of BTK (Q06187 whole entry): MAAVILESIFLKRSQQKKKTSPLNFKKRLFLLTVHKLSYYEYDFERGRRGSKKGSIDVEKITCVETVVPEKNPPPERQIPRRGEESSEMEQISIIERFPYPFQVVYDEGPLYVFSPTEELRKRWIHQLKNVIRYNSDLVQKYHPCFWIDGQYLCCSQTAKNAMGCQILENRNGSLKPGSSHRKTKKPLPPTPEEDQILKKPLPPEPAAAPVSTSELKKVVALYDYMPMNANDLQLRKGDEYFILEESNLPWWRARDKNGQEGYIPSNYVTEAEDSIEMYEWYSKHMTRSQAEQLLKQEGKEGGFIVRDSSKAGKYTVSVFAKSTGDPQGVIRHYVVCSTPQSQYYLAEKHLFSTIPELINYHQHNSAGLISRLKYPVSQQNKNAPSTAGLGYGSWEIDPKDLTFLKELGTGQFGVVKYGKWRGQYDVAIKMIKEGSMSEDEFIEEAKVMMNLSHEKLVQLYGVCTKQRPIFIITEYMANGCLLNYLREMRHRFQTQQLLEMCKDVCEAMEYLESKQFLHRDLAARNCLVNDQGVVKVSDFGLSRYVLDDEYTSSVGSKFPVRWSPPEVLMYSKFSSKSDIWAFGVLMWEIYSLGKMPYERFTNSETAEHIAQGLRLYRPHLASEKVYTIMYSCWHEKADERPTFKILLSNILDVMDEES
Sequence of Dephosphorylated BTK (Q06187 whole entry): as above

For the compound `Cc1c(NC(=O)c2ccc(C(C)(C)C)cc2)cccc1-c1ncnc(Nc2ccc(C(=O)N3CCN(CCO)CC3)cc2)n1` [Example 10, 4-(tert-Butyl)-N-{3-[4-({4-[4-(2-hydroxyeth-yl)piperazine-1-carbo-nyl]phenyl}amino)-1,3,5-triazin-2-yl]-2-meth-ylphenyl}benzamide], the 50% inhibitory concentration (IC50) (commonly the midpoint of a concentration-inhibition curve) in assay [1] came out at 12.8 nM; in assay [2] it was 3.2 nM.

Regarding `Cc1c(NC(=O)c2ccc(C(C)(C)C)cc2)cccc1-c1ncnc(Nc2ccc(C(=O)NCCN3CCOCC3)cc2)n1` [Example 8, 4-(tert-Butyl)-N-{2-meth-yl-3-[4-({4-[(2-morpho-linoethyl)carbamoyl]phenyl}amino)-1,3,5-triazin-2-yl]phenyl} benzamide], the IC50 in assay [1] is 13.1 nM; in assay [2] it was 3.5 nM.

With `Cc1c(NC(=O)c2ccc(C(C)(C)C)cc2)cccc1-c1ncnc(Nc2ccc(C(=O)N3CCOC(CN)C3)cc2)n1` (centres unmarked) [Example 7, N-{3-[4-({4-[2-(Amino-methyl)morpholine-4-car-bonyl]phenyl}amino)-1,3,5-triazin-2-yl]-2-methylphenyl}-4-(tert-butyl)benzamide], the 50% inhibitory concentration (IC50) in assay [1] was determined as 8.2 nM; in assay [2], 2.5 nM.

For `Nc1nc(Nc2ccc(N3CCOCC3)cc2)nc(-c2cccc(N3CCc4cc(C5CC5)cc(F)c4C3=O)c2CO)n1` [Example 44, 2-(3-{4-Amino-6-[(4-morpholinophenyl)amino]-1,3,5-triazin-2-yl}-2-(hydroxymethyl)phenyl)-6-cycropropyl-8-fluoro-3,4-dihydroisoquinolin-1(2H)-one], the “BTK phosphorylation inhibitory activity” value in assay [3] was “*** (70% or more)”.

Take `Cc1c(NC(=O)c2ccc(C(C)(C)C)cc2)cccc1-c1ncnc(Nc2ccc(C(=O)N3CCN(C)CC3)cc2)n1` [Example 4, 4-(tert-Butyl)-N-[2-methyl-3-(4-{[4-(4-methylpiperazine-1-carbonyl)phenyl]amino}-1,3,5-triazin-2-yl)phenyl]benzamide]: the IC50 is 10 nM in assay [1] and 4.2 nM in assay [2].

For `Cc1c(NC(=O)c2ccc(C(C)(C)C)cc2)cccc1-c1ncnc(Nc2ccc(C(=O)N3CCC(O)CC3)cc2)n1` [Example 9, 4-(tert-Butyl)-N-[3-(4-{[4-(4-hydroxypiper-idine-1-carbonyl)phenyl]amino}-1,3,5-triazin-2-yl)-2-methylphen-yl]benzamide], the values for the IC50 in assay [1] and in assay [2] were 12.6 nM and 2.1 nM, respectively.

Consider `COc1cc(Nc2ncnc(-c3cccc(NC(=O)c4ccc(C(C)(C)C)cc4)c3C)n2)cc(OC)c1OC` [Example 1, 4-(tert-Butyl)-N-(2-methyl-3-[4-[(3,4,5-trimethoxyphenyl)amino]-1,3,5-triazin-2-yl]phenyl)benzamide], for which, in assay [4], the “BTK phosphorylation inhibition ratio” value worked out at 107%. Also, the half-maximal inhibitory concentration (IC50) in assay [1] was found to be 10 nM; in assay [2] it was 2.1 nM. Further, the inhibition at 0.3 µM in assay [5] is more than 70%.

Take `Cc1c(NC(=O)c2ccc(C(C)(C)C)cc2)cccc1-c1nc(N)nc(Nc2ccc(C(=O)N3CCOC(CO)C3)cc2)n1` (centres unmarked) [Example 30, N-{3-[4-Amino-6-({4-[2-(hydroxymethyl)morpho-line-4-carbonyl]phe-nyl}amino)-1,3,5-tria-zin-2-yl]-2-methylphe-nyl}-4-(tert-butyl)benz-amide]: in assay [5], the inhibition at 0.3 µM is more than 70%. In assay [2], the IC50 is 1.3 nM.
